What is called EC50 is the concentration that produces a half-maximal response.

Where two headings read alike, the source gives them in different places.

Here are results for nine molecules from US5502065A, “Indole derivatives as 5-HT1 -like agonists” (Pfizer Inc., priority 1992, dated 1996).

Test [1] addresses T1, "5-HT1 -like" receptor (Canis lupus familiaris, UniProt P79250).
T1 construct: dog isolated saphenous vein strip; from tissue; host or cells: dog isolated saphenous vein strip
The following applies: dog isolated saphenous vein strip; cited from earlier work.

Test [2] deals with T1, "5-HT1 -like" receptor. In words: contraction of dog isolated saphenous vein strip ("5-HT1 -like" receptor agonist activity). The following applies: for Emax: read-out: […] RELATIVE TO 5-HT RESPONSE, relative to 5-HT response, read-out: PERCENTAGE AGONISM RELATIVE TO 5-HT RESPONSE
On the procedure: The in vitro evaluation of the "5-HT1 -like" receptor agonist activity of the compounds of the formula (I) is carried out by testing the extent to which they mimic sumatriptan in contracting the dog isolated saphenous vein strip (P. P. A. Humphrey et al., .Br. J. Pharmacol., 94, 1123 (1988)).
The in vitro evaluation of the "5-HT1 -like" receptor agonist activity of the compounds of the invention is carried out by testing the extent to which they mimic sumatriptan in contracting the isolated dog saphenous vein strip (P. P. A. Humphrey et al., Brit. J. Pharmacol., 1988, 94, 1123).
EC50 represents the concentration of compound which causes 50% of the maximum contraction effected by it.

The next test deals with carotid vascular bed. The following applies: anaesthetized dog, cited from earlier work.
Setting [3] is: dog isolated saphenous vein strip.

T1 sequence (P79250 whole entry): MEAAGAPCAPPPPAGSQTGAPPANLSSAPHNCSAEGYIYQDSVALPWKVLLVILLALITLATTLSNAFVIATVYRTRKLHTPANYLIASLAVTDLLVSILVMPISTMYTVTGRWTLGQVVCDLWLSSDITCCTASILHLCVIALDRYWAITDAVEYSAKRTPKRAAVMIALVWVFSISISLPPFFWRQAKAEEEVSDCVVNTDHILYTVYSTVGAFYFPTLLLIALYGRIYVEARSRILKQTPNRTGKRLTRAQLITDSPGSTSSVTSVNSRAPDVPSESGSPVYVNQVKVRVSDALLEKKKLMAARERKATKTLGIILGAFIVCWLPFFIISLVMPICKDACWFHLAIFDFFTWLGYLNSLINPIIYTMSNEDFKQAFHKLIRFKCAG

Turning to `CSc1ccc2c(c1)C(N1CCN(C)CC1)Cc1ccccc1S2` (centres unmarked) [methiothepin], on "5-HT1 -like" receptor [1], the “block of saphenous vein contraction (5-HT antagonism)” value is given as “can be blocked”.

On "5-HT1 -like" receptor [2], `CN1CCC[C@@H]1Cc1c[nH]c2ccc(-c3ccc(CO)o3)cc12` [Example 66, 5-(5-Hydroxymethyl-2-furyl)-3-(1-methylpyrrolidin-2(R)-ylmethyl)-1H -indole] returned an EC50 of 19 nM. Also, the Emax at "5-HT1 -like" receptor [2] (setting [3]) was determined as 80%.

`CN1CCC[C@@H]1Cc1c[nH]c2ccc(-c3cncc(C#N)c3)cc12` [Example 53] displayed an EC50 at "5-HT1 -like" receptor [2] of 26 nM. For the same molecule, the Emax at "5-HT1 -like" receptor [2] (setting [3]) was 75%. For `c1ncc(-c2ccc3[nH]cc(C[C@H]4CCCN4CC4CC4)c3c2)cn1` [Example 60, 3-(1-Cyclopropylmethylpyrrolidin-2(R)-ylmethyl)-5-(5-pyrimidinyl)-1H-indole], in that order: 9.2 nM and 105%.

As to `OCc1ccc(-c2ccc3[nH]cc(C[C@H]4CCCN4)c3c2)cc1` [Example 37, 5-(4-Hydroxymethylphenyl)-3-(pyrrolidin-2(R)-ylmethyl)-1H-indole], on "5-HT1 -like" receptor [2], the midpoint of the response, the EC50, lay at 76 nM. Besides, the Emax on "5-HT1 -like" receptor [2] (setting [3]) was 72%.

As to `CN1CCC[C@@H]1Cc1c[nH]c2ccc(-c3cccc(S(N)(=O)=O)c3)cc12` [Example 3], it took 3.78 nM to reach a half-maximal effect on "5-HT1 -like" receptor [2] (EC50). Further, the Emax at "5-HT1 -like" receptor [2] (setting [3]) was determined as 85%.

On to `CNS(=O)(=O)Cc1ccc2[nH]cc(CCN(C)C)c2c1` [Sumatriptan], for which the carotid vascular resistance result in the test with carotid vascular bed was “selective increase”. Also, in the test on carotid vascular bed (consequent on increased carotid vascular resistance), the “carotid arterial blood flow” value is on record as “decrease”. Consider `CN1CCC[C@@H]1Cc1c[nH]c2ccc(-c3ccc(C(N)=O)s3)cc12` [Example 64, 5-(5-Carbamoyl-2-thienyl)-3-(1-methylpyrrolidin-2(R)-ylmethyl)-1H-indole], for which the response at "5-HT1 -like" receptor [2] was half-maximal at 25 nM (EC50). Further, the Emax at "5-HT1 -like" receptor [2] (setting [3]) stood at 79%. Regarding `CN(C)C(=O)CCN1CCC[C@@H]1Cc1c[nH]c2ccc(-c3cccc(C(=O)N(C)C)c3)cc12` [Example 46, 3-1-(2-N,N-dimethylcarbamoylethyl)pyrrolidin-2(R)-ylmethyl!5-(3-N,N-dimethylcarbamoylphenyl)-1H-indole], the EC50 at "5-HT1 -like" receptor [2] (dog isolated saphenous vein strip, concentration of compound which causes 50% of the maximum contraction effected by it, read-out: EC50) was 160 nM. In addition, the Emax on "5-HT1 -like" receptor [2] (setting [3]) was determined as 78%.
